Laboratory results from patent US20240369551A1 (priority 2021, published 2024).
Values joined by “and” are separate entries in the source; they are usually repeats but may differ in a detail not shown here. Identical values can stand only once. Like-named read-outs stand apart in the source and are kept apart here. Ends that are not written are not given here.

How the values were obtained:
[1] = biological target: epitope-specific SARS-CoV-2 IgGs; assay: SPR spectroscopy (Biacore T200): IgG binding to immobilized biotinylated peptide epitopes; design: species or system rabbit; conditions: for binding affinities (estimated Kd, order of magnitude): Example 9, kinetic fitting, streptavidin treated CM5 chip; for Kd: respective target IgG, 25° C.; for apparent Kd: kinetic analysis, very slow dissociation, beyond the instrument sensitivity limit
[2] = tested on: SARS-CoV-2 IgG; assay: Fluorescence polarization (FP) of FITC-labeled epitopes with IgG; format: binding, rabbit; conditions: 100 nM FITC-labeled epitope, 200 nM IgG, 15 min, 1×PBS
[3] = tested on: SARS-CoV-2 IgG antibodies; assay: Immunoassay with epitope-tagged AuNPs (aggregation, relative change in absorbance at 534 nm); format: binding, rabbit; conditions: for limit of detection (LOD): single epitope-functionalized AuNPs (streptavidin-biotin), respective SARS-CoV-2 IgG; for decrease of normalized plasmon peak intensity (534 nm): anti-SARS-CoV-2 S1 IgG; for LOD: detection of anti-SARS-CoV-2 S1 IgG; for nanosensor response: 100 nM anti-S1 IgG
Method: (§1) SARS-CoV-2 IgG antibodies and control antibodies were first diluted in 1×PBS. In a typical experiment, 5 μL of prediluted antibody solution was added to 45 μL of epitope-functionalized AuNPs. The mixture was spun briefly for 20 s at 6000 rpm using a portable microcentrifuge (Profuge 6K) and incubated for another 30 min at room temperature. Absorbance spectra of the supernatant were recorded using a microplate reader (Synergy 2; BioTek). Sensor response was calculated as the relative change in absorbance at 534 nm. For a time-profile study, the absorbance spectra were recorded at 10 min intervals. For a salt-induced aggregation test, solutions of AuNPs were treated with 1×PBS and the absorbance spectra were recorded after a 30 min incubation. For a selectivity screen against other human coronaviruses, the concentration of antibodies was 100 nM. To investigate the sensitivity of AuNPs in human plasma, SARS-CoV-2 IgG rabbit antibodies were spiked into PBS containing various concentrations of human plasma, such that the final plasma concentration after mixing with AuNPs was 0%, 10%, and 20% (v/v).

[4] = tested on: COVID19 anti-S1 IgG; assay: UV-vis aggregation test of peptide-coated nanoparticles (Examples 1, 6, 7, 8); format: binding; conditions: for response to COVID-19 IgGs: single epitope thiol-AuNP conjugation with thiolyated spacer CALNN
[5] = tested on: SARS-CoV IgG; format: binding
[6] = tested on: MERS IgGs; format: binding
[7] = tested on: HCoV-HKU1 IgGs; assay: Immunoassay with epitope-tagged AuNPs, selectivity screen; format: binding; conditions: 100 nM antibodies
Method: as §1

[8] = tested on: normal human IgG; assay: Immunoassay with epitope-tagged AuNPs, control IgG; format: binding
Method: as §1

[9] = tested on: COVID19 anti-S2 IgG; assay: UV-vis aggregation test of peptide-AuNP conjugates (Example 2); format: binding; conditions: streptavidin-biotin conjugates, peptide 10 or 1 μM
Method: Citrate-coated AuNP was functionalized with streptavidin (SA) by mixing 500 nM of SA with 8 nM of citrate-coated AuNP. The mixture was incubated at room temperature for 30 min, and unbound SA was removed from the SA-coated AuNPs (SA-AuNPs) with centrifugation at 12,500 RCF for 15 mins. Then, biotinylated S20P2 or S21P2 peptide (10 or 1 μM) was added to conjugate to the SA-AuNPs. Unreacted peptides were removed from the peptide-AuNP conjugates with centrifugation at 12500 RCF for 12 mins. The conjugates were reconstituted into ultrapure water for further tests with IgG.
For IgG test, 20 μL of COVID19 anti-S2 IgG (SINO Biological) was added to 80 μL of peptide-AuNP conjugates in a 96-well plate. UV-vis spectrum before and after IgG addition are recorded (FIGS. 3A and B). […] For both conjugates, a higher degree of aggregation is observed when lower peptide concentration (1 μM) is used, presumably due to the diluted coating density around AuNP which poses less steric hindrance for binding with IgG.

[10] = real-time kinetic analysis, 1:1 Langmuir model, read-out: Kd from kinetic analysis
[11] = steady-state analysis without dissociation step, read-out: Kd from steady-state analysis

For NNAAIVLQLPQGTTLPKG [N4P5], the “binding affinities (estimated Kd, order of magnitude)” value (“binding affinities” below) [1] was “μM”, the Kd [1, 10] was ~218 nM and 218 nM and the Kd [1, 11] was 1610 ± 120 nM. For the same substance, the “relative FP increase” value [2] was “comparably lower percentage of FP increase” and the “limit of detection (LOD)” value [3] was 25.8 nM.
With TESNKKFLPFQQFGRDIA [S14P5] the “binding affinities” value [1] was “pM”, the “apparent Kd” value [1] was “low pM range” and the Kd [1, 10] was < 1 nM. The Kd [1, 11] was 111 ± 15 nM, the “relative FP increase” value [2] was “highest relative FP increase” and the “limit of detection (LOD)” value [3] was 4.1 nM. The “response to COVID-19 IgGs” value [4] was “resulted in nanoparticle aggregation”.
“S14P5-AuNPs: Gold nanoparticles functionalized with S14P5; streptavidin-biotin in Example 10, thiol-gold with or without CALNN spacer in Examples 1 and 6 (TESNKKFLPFQQFGRDIA; also: conjugated to gold nanoparticles via streptavidin-biotin or thiol-gold, with or without CALNN spacer)” was tested, and the “decrease of normalized plasmon peak intensity (534 nm)” value ([3]; first 10 min) was 40.2%, the “decrease of normalized plasmon peak intensity (534 nm)” value ([3]; leveling off within 30 min) was 67.3% and the LOD [3] was 4.1 nM. The “limit of detection (LOD)” value [3] was 4.1 nM, the “dose-dependent aggregation response (decrease in plasmon peak intensity)” value [5] was “absent” and the normalized sensor response [5] was 11.4%. For the same substance, the “normalized sensor response with SARS-CoV IgG relative to SARS-CoV-2 IgG (fold lower)” value ([5]; after 60 min) was 6 fold, the sensor response [6] was “minimal sensor response” and the sensor response [7] was “minimal sensor response”. The “dose-dependent aggregation response (decrease in plasmon peak intensity)” value [8] was “absent”, the “IgG concentration giving visible change in colour from red to purple” value ([4]; Example 1: thiol-conjugated S14P5 with CALNN blocking) was ≥ 100 nM and the linear range ([4]; Example 1: thiol-conjugated S14P5 with CALNN blocking, absorbance ratio) was 10 to 100 nM. For the same substance, the LOD ([4]; Example 1: thiol-conjugated S14P5 with CALNN blocking, absorbance ratio, 15 min) was ~30 nM and 4.5 μg/ml and the “binding / nanoparticle aggregation” value ([4]; thiol-AuNP conjugation without spacer, COVID-19 anti-S1 IgG (100 nM)) was “unable to bind to anti COVID-19 IgGs”.
In the case of “S14P5/S21P2-AuNPs: Streptavidin-coated gold nanoparticles functionalized with both biotinylated S14P5 and S21P2 epitopes (peptide 1 TESNKKFLPFQQFGRDIA; peptide 2 PSKPSKRSFIEDLLFNKV; also: biotinylated peptides on streptavidin-coated gold nanoparticle)”, the “recognition of anti-S1 and anti-S2 IgGs of SARS-CoV-2” value ([3]; 50 nM of anti-S1 IgG or anti-S2 IgG (FIG. 23)) is reported as “able to recognize both anti-S1 and anti-S2 IgGs”, the nanosensor response ([3]; 5-fold diluted human plasma) is reported as 14.6% and the nanosensor response ([3]; 10-fold diluted human plasma) is reported as 22.8%. It also gave a nanosensor response ([3]; pure PBS) of 78.2% and an LOD [3] of 3.2 nM.
PSKPSKRSFIEDLLFNKV [S21P2] was tested, and the “binding affinities” value [1] was “pM”, the “apparent Kd” value [1] was “low pM range” and the Kd [1, 10] was < 1 nM. For the same substance, the Kd [1, 11] was 125 ± 7 nM, the “relative FP increase” value [2] was “significant increase in FP values” and the “limit of detection (LOD)” value [3] was 5.1 nM. The “response to COVID-19 IgGs” value [4] was “resulted in nanoparticle aggregation”.
With “S21P2-AuNPs: Streptavidin-coated gold nanoparticles functionalized with biotinylated S21P2 epitope (PSKPSKRSFIEDLLFNKV; also: biotinylated, bound to streptavidin-coated gold nanoparticles)” the “limit of detection (LOD)” value [3] was 5.1 nM, the sensor response [6] was “minimal sensor response” and the sensor response [7] was “minimal sensor response”. For the same substance, the “aggregation of peptide-coated AuNPs” value [9] was “significant aggregation”.
For GIAVEQDKNTQEVFAQVK [S20P2], the “binding affinities” value [1] was “nM”, the Kd [1, 10] was ~80 nM and 80 nM and the Kd [1, 11] was 510 ± 34 nM. The “relative FP increase” value [2] was “significant increase in FP values” and the “limit of detection (LOD)” value [3] was 15.4 nM.
